{
  "source": "patent US20090118340A1",
  "about": "“Method for inhibiting and/or preventing formation of cancer metastases and seconddary malignant cancers” (priority 2007, published 2009)",
  "origin": "cited, not measured here",
  "tested_on": "murine leukemia L1210",
  "conditions": "for cytotoxicity in cultured leukemia cells: Pharmacological Reports, 2007, 59, 216-223",
  "data": [
    {"smiles": "C[n+]1cccc(C(N)=O)c1", "note": "[MNA, 1-methylnicotinamide]", "values": [
      {"measurement": "cytotoxicity in cultured leukemia cells", "value": "negligible"},
      {"measurement": "cytotoxicity, factor lower than 3-nitro-1-methylpyridinium chloride", "setting": "observed only at very high concentration", "value": "about 7000"}
    ]},
    {"smiles": "C[n+]1cccc([N+](=O)[O-])c1.[Cl-]", "note": "[3-nitro-1-methylpyridinium chloride, reference compound]", "values": [
      {"measurement": "cytotoxicity in cultured leukemia cells", "value": "highest cytotoxicity"}
    ]}
  ]
}
